In brackets after ≈: the same amount, converted by molar mass.

In one data set the test system is Candida albicans. Briefly: Antifungal activity (MIC, Minimum Inhibitory Concentration). In kind it is cell-based. The settings on record: for MIC: Candida albicans, Table 5, optimized platform formulation vs unformulated. From the text:
The responses were Fine Particle Fraction (FPF) and Anti-fungal Activity (MIC—Minimum Inhibitory Concentration) (Table 2), while the tested pathogen was Candida albicans. The antifungal activity was influenced mainly by the type of salt excipient as well (i.e. parameter A; Rank 1), with sodium sulfate as one of the preferred options. The optimum results for all the parameters are: A6, B1, C3, D3.

Data set [1] is described as follows: In vitro aerosol performance: Fine Particle Fraction (FPF) of the powder. The settings on record: Table 5; optimized platform formulation (sodium sulfate 5% w/w, L-leucine 30% w/w, spray dry) vs unformulated. In kind it is physicochemical. The text has this:
The responses were Fine Particle Fraction (FPF) and Anti-fungal Activity (MIC—Minimum Inhibitory Concentration) (Table 2), while the tested pathogen was Candida albicans.
The FPF was influenced mainly by the type of salt excipient (i.e., parameter A; Rank 1), with sodium sulfate as one of the preferred options. The optimum results for all the parameters are: A6, B1, C1, D3.
Letters A, B, C and D represent the experimental parameters and corresponding levels.

Take `OC(Cn1cncn1)(Cn1cncn1)c1ccc(F)cc1F` [A, Fluconazole]: inhibition of growth against Candida albicans (MIC) required 0.25 µg/mL (≈ 0.816 µM). In addition, the “improvement in antifungal activity” value in the data set with Candida albicans (formulated using the platform technology vs unformulated) is on record as “approximately 4 times”. Also, the “FPF (%)” value in data set [1] turned out to be 2.6 ± 0.1%.

`CCC(C)n1ncn(-c2ccc(N3CCN(c4ccc(OCC5COC(Cn6cncn6)(c6ccc(Cl)cc6Cl)O5)cc4)CC3)cc2)c1=O` (stereo not drawn) [B, Itraconazole] yielded a minimal inhibitory concentration (MIC) against Candida albicans of under 0.03 µg/mL.

The molecule `C[C@@H](c1ncncc1F)[C@](O)(Cn1cncn1)c1ccc(F)cc1F` [C, Voriconazole] had a minimum inhibitory concentration (MIC) in the data set on Candida albicans of under 0.03 µg/mL. Besides, the “FPF (%)” value in data set [1] came to 3.5 ± 0.3%.

The term MIC denotes the lowest concentration found to suppress growth. A low value points to a more susceptible organism.

The values are drawn from patent US20260158005A1, “A SALT-BASED ANTIFUNGAL POWDER PLATFORM FORMULATION FOR AEROSOLIZATION” (AGENCY FOR SCIENCE, TECHNOLOGY AND RESEARCH, priority 2021, published 2026).
